Measured values published in PubChem BioAssay AID179 (DTP/NCI, 2004).
The source made the active and inactive calls.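 The calls were made as follows: active = compounds giving half or more protection of infected cells from virus-caused growth loss, again on retest; inactive = the rest.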 Where a SMILES comes first, the peptide text is derived from it.

Tested on: CEM cells HIV-1 protection, formazan growth assay
Assay: NCI AIDS Antiviral Assay
Details: for IC50: measured here: growth of uninfected CEM cells
In short: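 Human CEM cells, uninfected and HIV-1-infected, exposed to five drug concentrations; growth measured by soluble formazan assay and scored as percent protection from infection, with protecting compounds retested.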

Structure (SMILES)	EC50 [µM]	IC50 [µM]	outcome
O=C1Nc2ccccc2C12CCNC2Cc1ccccc1 (stereo not given)	> 794	263	–
CO/N=C\c1c2c(O)c3c(O)c(C)c4c(c3c1O)C(=O)C(C)(O/C=C\C(OC)C(C)C(OC(C)=O)C(C)C(O)C(C)C(O)C(C)/C=C\C=C(\C)C(=O)N2)O4 (stereo not given)	> 151	15.8	–
CCCCCCCCCCCCN(CCCCCCCCCCCC)CC(=O)Nc1ccc(S(=O)(=O)c2ccc(NC(=O)CN(CCCCCCCCCCCC)CCCCCCCCCCCC)cc2)cc1	> 50.1	2.57	–
N=C1C(=N)c2ccccc2-c2ccccc21.N=C1C(=N)c2ccccc2-c2ccccc21.[Cl-].[Rh+3].c1ccc(-c2ccccn2)nc1	–	–	inactive
Brc1cc2c(cc1Br)CN(c1ccccc1)C2	–	–	inactive
N#Cc1nc(CCCN2C(=O)c3ccccc3C2=O)oc1N	> 200	> 200	–
Clc1cc2nc3[nH]c4ccccc4c3nc2cc1Cl	> 83.2	> 83.2	–
C=C(C)P(=O)(OC(C)CCl)OC(C)CCl (stereo not given)	> 200	> 200	–
CCN(CC)C(=O)Cc1[nH][nH]c(=O)c1C(=O)N(CC)CC	> 851	> 851	–
O=C(c1ccccc1)N1CCc2c([nH]c3ccccc23)C1	–	–	inactive
CC(C)=CCN1c2ccc(Cl)cc2NC(=O)CC1C (stereo not given)	> 87.1	49	–
C=C(C)[C@@]1(O)CCCC[C@@H]1CC(Sc1ccccc1)Sc1ccccc1	> 200	19.1	–
COc1ccc(N2C(=O)C3CC(c4ccc(C)cc4)c4c([nH]c5ccccc45)C3C2=O)cc1 (stereo not given)	> 2.4	> 2.4	–
Oc1cc(Br)cc2cccnc12	–	–	inactive
CCOC(=O)C1C[C@@H](O)CN1C(=O)c1ccc2c(c1)OCCO2 (stereo not given in full)	> 200	> 200	–
Cc1c(C)c2c(c3c1OC(C)(C)CC3)CCC(C)(C)O2	> 135	74.1	–
CC(C)=CCC/C(C)=C/CCC1(C)C2COC(=O)C21 (stereo not given)	> 200	46.8	–
O=c1c(Cl)c(N2CCOCC2)cnn1-c1ccccc1	> 234	209	–
CC(=O)OC[C@]12[C@H](OC(C)=O)[C@H](OC(C)=O)[C@@H]3C(OC(C)=O)[C@@]14OC3(C)COC(=O)c1cccnc1CCC(C)C(=O)OC([C@H](O)[C@@H]2OC(=O)c1ccccc1)[C@]4(C)O (stereo not given in full)	–	–	inactive
N#Cc1ccc(Oc2cccc(Oc3ccccc3)c2)cc1C#N	> 43.7	> 43.7	–
Cc1ccc(S(=O)(=O)C(C#N)c2nc3ccccc3nc2-n2ccnc2)cc1 (stereo not given)	> 200	155	–
O=C1C=CC(=O)c2c1ccc1c3ccccc3n(Cc3ccccc3)c21	> 200	3.24	–

Structure (SMILES)	EC50 [µM]	IC50 [µM]	outcome
CC(=O)OC[C@@H](OC(C)=O)[C@H](OC(C)=O)[C@@H]1OC(C)(C)O[C@@H]1C1SCCCS1	> 200	> 200	–
COc1cc(O)c2c(c1)C(=O)C=C(Cl)C2=O	–	–	inactive
Fc1ccc2c3c([nH]c2c1)CCNC3	> 200	> 200	–
N#CC1=C(O)NC(O)=C(C#N)C1c1c(Cl)cccc1Cl	> 427	27.5	–
O=[N+]([O-])c1cc([As](=O)(O)O)ccc1Cl	> 200	> 200	–
CC(=O)OC1(C)C=Cc2ccccc2/C1=N/S(=O)(=O)c1ccccc1 (stereo not given)	> 200	31.6	–
Cn1c(=O)c2c(nc(NCCCCl)n2CC(=O)NCCCCl)n(C)c1=O	> 200	> 200	–
CC(=O)ON(C)C1CC(=O)OC1CO[Si](C)(C)C(C)(C)C (stereo not given)	> 200	93.3	–
CC1NC(=O)CNC(=O)CNC(=O)C(Cc2ccc(O)cc2)NC(=O)C(C(C)C)NC(=O)C(C)NC1=O (stereo not given) (cyclo(GGAAVY); configuration not given here)	–	–	inactive
Cn1c(=O)c2c(nc(N/N=C/c3cccc(Br)c3)n2C)n(C)c1=O	> 200	> 200	–
c1ccc2c(c1)SCCCS2	> 39.8	> 39.8	–
N#C/C(=C/n1c(=S)[nH]c2ccc([N+](=O)[O-])cc21)c1ccc([N+](=O)[O-])cc1	> 200	117	–
O=C(NCCCNC(=O)c1ccc2cc(O)ccc2c1)c1ccc2cc(O)ccc2c1	–	–	inactive
CN1CN(c2ccccc2)C2(CCN(CCCC3(c4cccs4)OCCO3)CC2)C1=O	> 200	107	–
NC(N)=NCCCC(NC(=O)OCCCCCCn1ccc(N)nc1=O)C(=O)O (stereo not given)	> 200	> 200	–
CCOC(=O)/C(=C\c1cn(C(C)=O)c2ccccc12)P(C)(=O)OCC (stereo not given)	> 200	55	–
CCc1ccc(/C(=N\NC(N)=S)C2CC2)cc1	> 200	110	–
COC(=O)C(C(=O)C(N)=O)c1csc(-n2nc(-c3ccccc3)cc2-c2ccccc2)n1 (stereo not given)	> 61.7	53.7	–
OC1Cn2cc(Br)c[n+]2C1 (stereo not given)	> 200	> 200	–
CCn1c2ccccc2c2c3ncc4cccn4c3ccc21	> 200	135	–
O=C(NCCN1CCOCC1)C1(O)N=C(c2ccccc2)c2ccsc2-n2cccc21 (stereo not given)	> 200	123	–
C=C1CC(C)(COc2ccc3ccc(=O)oc3c2)OC1=O (stereo not given)	> 20	0.275	–

Structure (SMILES)	EC50 [µM]	IC50 [µM]	outcome
N#CCc1c(F)c(F)c(F)c(F)c1F	> 200	> 200	–
COc1cc(N(CCC#N)CCC#N)ccc1/C(N=Nc1ccc([N+](=O)[O-])cc1)=N/NC(=O)c1cc(Br)ccc1O	> 200	33.1	–
N#C/C(=C\c1cc(O)c(O)c(O)c1)C(N)=O	> 200	91.2	–
O=[N+]([O-])c1ccc2c3c(cccc13)S(=O)(=O)O2	> 200	85.1	–
O=C1C(N=Nc2ccc(Cl)cc2)Sc2nc3ccccc3n21 (stereo not given)	–	–	inactive
COc1c(OC(C)=O)c(OC(C)=O)cc2c1-c1ccc(OC)c(=O)cc1C(NC(C)=O)CC2 (stereo not given)	> 0.2	0.0115	–
CC(=O)NNc1nc(C)c(C(/C=C/c2ccc(NC(C)=O)cc2)=N/NS(=O)(=O)c2ccc(C)cc2)s1	> 57.5	> 57.5	–
CC1(C)OC(=O)N(c2ccccc2)C12C=Cc1cc([N+](=O)[O-])ccc1O2 (stereo not given)	> 151	61.7	–
Cc1nc2c(=O)n3c4c(cccc4c2o1)CCC3	> 200	107	–
O=C(O)CC(NC(=O)Nc1ccc([N+](=O)[O-])cc1)C(=O)Nc1ccc([N+](=O)[O-])cc1 (stereo not given)	> 200	> 200	–
CCOC(=O)C1C(c2ccccc2)C2(C#N)C(=N)OC1(C)C2(C#N)C#N (stereo not given)	> 200	28.8	–
COC(=O)c1cc(CC2Cc3cc4c(cc3C2=O)CCC4)cc2c1CCC2 (stereo not given)	33.1	> 200	–
C=CC[C@@]1(C)CCCCCCCCC[C@@](C)(CC=C)C1=O	> 200	115	–
COc1ccc(Cc2nnc3nc(OC)c(-c4ccc(OC)cc4)n3n2)cc1	> 50.1	> 50.1	–
Cc1cc(C)c(S(=O)(=O)Sc2nnnn2C)c(C)c1	> 603	126	–
Cc1cc(=O)cc2sc3c(C)cccc3nc1-2	> 30.2	> 30.2	–
NC(=S)N/N=C(\CCC(=O)Nc1ccccc1[N+](=O)[O-])CC(=O)c1ccco1	> 234	> 234	–
Cn1ccnc1CCc1ccc(F)cc1F	> 200	> 200	–
CCOC(=O)N1CCN(P(=O)(Nc2ccc3nc(NC(=O)OC)[nH]c3c2)Oc2ccccc2)CC1 (stereo not given)	> 135	53.7	–
CC1CCC2(OC1)OC1CC3C4CCC5CC(O)CCC5(C)C4CC(=O)OC3(C)C1C2C (stereo not given)	–	–	inactive
CC(C)C/C(CC(=O)CCC(=O)Nc1ccccc1[N+](=O)[O-])=N\NC(=O)c1cc2ccccc2cc1O	> 70.8	11.7	–
CCOC(=O)C1N(S(=O)(=O)c2ccc(C)cc2)CCC12c1ccccc1N(C(C)=O)C2c1ccc(OC)c(OC)c1 (stereo not given)	–	–	inactive

Structure (SMILES)	EC50 [µM]	IC50 [µM]	outcome
O=c1/c(=C/c2ccc(Cl)cc2Cl)sc2nc3ccccc3n12	–	–	inactive
C/C(=N/NC(=S)Nc1cccc(C)c1)c1ccccn1	> 0.2	0.0955	–
CCCCCCCCCC=C(c1cc(Cl)c(O)c(C(=O)O)c1)c1cc(Cl)c(O)c(C(=O)O)c1	45.7	49	–
CNc1nc2cc(OC)c(OC)cc2c(=O)[nH]1	> 200	191	–
CC1(C)SCC(COC(=O)c2ccccc2)S1 (stereo not given)	> 200	> 200	–
COc1cc(N=Nc2c(S(=O)(=O)O)cc3cc(NC(=O)Nc4ccc5c(O)c(N=Nc6ccc7cc(S(=O)(=O)O)ccc7c6)c(S(=O)(=O)O)cc5c4)ccc3c2O)c(C)cc1N	–	–	active
O=c1ccn(/C=C\c2nc3ccccc3[nH]c2=O)c(=S)[nH]1	> 200	> 200	–
Cc1c(C(=O)CSc2nc3ccccc3[nH]2)c(=O)n(-c2ccccc2)n1C	> 95.5	> 95.5	–
CC(=O)CC(N)=O	–	–	inactive
C=C1CC2(CCOc3ccccc32)OC1=O (stereo not given)	> 871	4.37	–
O=c1c2ccccc2n2nnc3cccc1c32	> 23.4	> 23.4	–
COc1ccc(CNc2cnc3ccc(N)cc3n2)cc1OC	> 115	> 115	–
c1ccc(-c2cc(Nc3ccc4c(c3)OCO4)c3cc(C4CCCCC4)ccc3n2)cc1	–	–	inactive
Cc1cc(C)c2c(c1)C(=O)c1c(O)ccc(O)c1C2=O	–	–	inactive
COc1ccc(C2S/C(=C\c3cccc(OC)c3)C(=O)N2NC(=O)Cc2ccccc2)cc1 (stereo not given)	> 107	> 107	–
C=C(C)[C@@]1(O[Si](C)(C)C)CCCC[C@@H]1CC(Sc1ccccc1)Sc1ccccc1	> 200	11.5	–
COc1cccc(C2c3cc4c(cc3OC(N3CCOCC3)C2C)OCO4)c1O (stereo not given)	> 200	3.09	–
N#Cc1ccc(/C=C2\Cc3ccccc3C2=O)cc1	> 200	> 200	–
Cc1cc(OP2(=O)NCc3ncccc3O2)ccc1Cl (stereo not given)	> 200	> 200	–
O=C1/C(=C/c2ccccc2)CCc2ccc([N+](=O)[O-])cc21	> 200	11.2	–
O=C1OC[C@@H]2CCCN2Cc2ccccc21	> 87.1	> 87.1	–
S=C1SCN2CCN3CSC(=S)N(CCN1C2)C3	> 81.3	> 81.3	–
